Assay [1] concerns the target Adenosine A3 (Homo sapiens, UniProt P0DMS8). The assay is described as follows: Eurofins Lead Profiling radioligand binding. Particulars: title: 30 μM.
Assay [2] has as its target Transporter, Norepinephrine (NET) (Homo sapiens, UniProt P23975). In words: Eurofins Lead Profiling radioligand binding. Particulars: title: 30 μM.

The record followed here is article PMC11887051, “Discovery of ONO-2920632 (VU6011887): A Highly Selective and CNS Penetrant TREK-2 (TWIK-Related K+ Channel 2) Preferring Activator In Vivo Tool Compound” (ACS Chemical Neuroscience, 2025).

Structures are written as SMILES.

Chain of Transporter, Norepinephrine (NET) (P23975 whole entry): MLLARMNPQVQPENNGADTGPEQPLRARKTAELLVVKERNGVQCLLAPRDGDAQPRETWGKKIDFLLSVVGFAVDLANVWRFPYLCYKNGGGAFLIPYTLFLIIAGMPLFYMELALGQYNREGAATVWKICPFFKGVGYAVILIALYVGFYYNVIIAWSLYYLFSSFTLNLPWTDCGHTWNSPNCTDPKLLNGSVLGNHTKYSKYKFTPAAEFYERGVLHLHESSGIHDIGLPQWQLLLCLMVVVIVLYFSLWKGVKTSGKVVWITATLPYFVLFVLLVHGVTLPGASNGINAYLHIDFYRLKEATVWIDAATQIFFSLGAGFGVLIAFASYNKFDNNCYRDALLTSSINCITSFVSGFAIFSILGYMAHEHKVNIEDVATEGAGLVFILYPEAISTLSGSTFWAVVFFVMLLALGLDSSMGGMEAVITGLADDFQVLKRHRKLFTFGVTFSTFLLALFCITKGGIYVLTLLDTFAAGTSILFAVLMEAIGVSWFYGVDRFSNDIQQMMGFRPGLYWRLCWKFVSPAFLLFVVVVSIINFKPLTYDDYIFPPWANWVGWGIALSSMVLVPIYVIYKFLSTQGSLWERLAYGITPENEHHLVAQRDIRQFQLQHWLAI
Chain of Adenosine A3 (P0DMS8 whole entry): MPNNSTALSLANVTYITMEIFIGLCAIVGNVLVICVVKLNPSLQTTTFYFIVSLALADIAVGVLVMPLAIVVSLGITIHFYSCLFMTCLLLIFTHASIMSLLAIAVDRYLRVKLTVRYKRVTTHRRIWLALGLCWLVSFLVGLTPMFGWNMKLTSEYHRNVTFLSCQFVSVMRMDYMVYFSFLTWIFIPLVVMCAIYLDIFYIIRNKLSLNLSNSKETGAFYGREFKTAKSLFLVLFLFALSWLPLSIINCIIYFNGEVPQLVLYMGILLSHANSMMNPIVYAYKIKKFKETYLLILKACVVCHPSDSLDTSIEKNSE

Turning to `O=C(NCc1ccc(OC(F)(F)F)cc1F)c1ccc2ncnn2c1` [Compound 19b], the results for the inhibition in assay [1] and in assay [2] were 21% and 29%, respectively.

Broadly, the inhibition is the change of the read-out against control, counted positive when it falls.
